Measured values from patent US20230257430A1, “RECOMBINANT PROTEINS FOR QUANTIFICATION OF PROTEIN LEVELS” (Genentech, Inc., priority 2020, published 2023).
Peptide text beside a SMILES is read from it. * marks the point of attachment. Cbz = O=C(OCc1ccccc1)*; CH2F = FC*

Key:
Format in all cases: cell-based, human
[1] = system: A549 parental, ARAF KO, BRAF KO, RAF1 (CRAF) KO cancer cells; assay: Soft agar colony formation growth assay with pan-RAF inhibitor in RAF-depleted RASK (KRAS) mutant cells; conditions: 100 nM, 1 μM, 10 μM
Method: FIG. 4J is a set of photomicrographs showing the results of a soft agar colony formation growth assay for A549 cells (parental) or ARAF knockout (KO), BRAF KO, or RAF1 (CRAF) KO cancer cells treated with the pan-RAF inhibitor AZ-628 at 100 nm, 1 μM, and 10 μM concentrations. Colonies were stained with MTT dye and imaged using a GelCount imager.
FIG. 6G is a set of photomicrographs showing the results of a soft agar colony formation growth assay for the indicated cancer cells treated with non-targeting shRNAs (shNT) or shRNA targeting ARAF (shARAF), BRAF (shBRAF), or RAF1 (CRAF) (shCRAF) and treated with the pan-RAF inhibitor AZ-628 at 100 nm, 1 μM, and 10 μM concentrations or a DMSO control.
It was hypothesized that the ratio of RAF1 (CRAF):ARAF versus RAF1 (CRAF):BRAF heterodimers may be important in the growth of RASK (KRAS) mutant tumors, and that this ratio may impact the efficacy of RAF kinase inhibition. To test this hypothesis, RASK (KRAS) mutant cells depleted of individual members of the RAF kinases (ARAF, BRAF or RAF1 (CRAF)) were treated with a pan-RAF dimer inhibitor (AZ-628). […] Taken together, RAF1 (CRAF) dimerization partners appear to dictate sensitivity to MAPK inhibition.

[2] = system: ERK downstream substrates (MAPK target gene set); assay: mRNA sequencing of MAPK target gene set in RASK (KRAS) mutant cells; conditions: RNA-sequencing
Method: FIG. 2E is a graph showing the log 2 fold change in expression of a MAPK target gene set determined by mRNA sequencing in cancer cells treated with shARAF, shBRAF, or shCRAF. Cells were treated with 0.5 μg/mL doxycycline (DOX) for 72 hours. Cells were treated with a MEK inhibitor (GDC-0973) for 6 hours, 250 nM (n=3) or an ERK inhibitor (GDC-0994). Data are normalized to a non-targeting control (shNT) and DMSO (no DOX).
To confirm sustained MAPK activity in spite of RAF1 (CRAF) depletion, we performed a gene expression analysis for the MAPK downstream effectors DUSP6 and SPRTY upon RAF1 (CRAF) depletion in the examined RASK (KRAS) mutant cells lines. […] In order to delineate pathway alterations upon RAF1 (CRAF) depletion versus MAPK inhibition, RNA-sequencing analysis was performed. […] Thus, RAF kinases compensate to sustain MAPK signaling in comparison to MAPK inhibition.

RAF1:BRAF heterodimers = assay: Immunoprecipitation of FLAG-tagged RAF1 (CRAF) in A549 RAF1 (CRAF) knockout cells; conditions: 250 nM, 24 hours
Description: Eluates were co-immunoprecipitated and blotted with the indicated antibodies.
To test whether RAF1 (CRAF) kinase activity is required for RASK (KRAS) mutant tumor cell growth, knockout cell lines of the three RAF isoforms were generated in a RASK (KRAS) mutant background. […] In the RAF1 (CRAF) knockout RASK (KRAS) mutant cells, stable expression of a panel of RAF1 (CRAF) mutants was established. […] Expression of RAF1 (CRAF) kinase-dead mutants including RAF1^D468N, RAF1^D486A, and RAF1^K375M(CRAF^D468N, CRAF^D486A, and CRAF^K375M) reduced pERK levels compared to cells expressing RAF1^wild-type (CRAF^wild-type) or RAF1^S259A (CRAF^S259A), a mutation which renders the RAF1 (CRAF) kinase constitutively active (FIG. 5C). RAF1 (CRAF) kinase-dead mutants either partially (RAF1^D468N (CRAF^D468N), RAF1^D486A(CRAF^D486A)) or fully (RAF1^K375M (CRAF^K375M)) rescued colony growth in RAF1 (CRAF)-deficient RASK (KRAS) mutant cells (FIGS. 4B and 5D). […] Functionally, the CRAF^K375M mutation completely abrogated MEK phosphorylation compared to CRAF^wild-type, but still rescued colony growth in RAF1-deficient RASK (KRAS) mutant cells (FIGS. 4C and 5C). […] Consistent with this, RAF1 (CRAF) kinase-dead mutants behaved like the RAF1 (CRAF) knockout, and were unable to rescue cell growth inhibition in the presence of MEK inhibitor compared to the cells expressing CRAF^wild-type (FIGS. 5E and 5F). […]

[3] = system: CRAF:BRAF and CRAF:ARAF dimers; assay: PIKES targeted analysis (PRM-MS) of immunoprecipitated FLAG-tagged CRAF wild-type; conditions: 250 nM, 24 hours
Description: Collected eluates were then combined with 100 fmol of QconCAT reagent and samples were processed similarly to the cell line analysis above for PRM analysis. For PRM analysis, RAW files were loaded onto Skyline (v19.1). A target peptide list was generated from the QconCAT peptides for both unlabeled and heavy-labeled peptides with transition setting filtered for precursor charges 2 and 3, ion charges 1 and 2, and y-ion types. Selected peaks from product ions were reviewed manually. Both MS1 and MS/MS filtering were set to Orbitrap mass analyzer with 60,000 resolving power. Signal was summed for the top three product ions and normalized to the heavy labeled QconCAT internal standard for peptide quantification.

MAPK signaling = assay: Western blot analysis of MAPK pathway components in RASK (KRAS) mutant cancer cells; conditions: 250 nM, 24 hours
[4] = system: A549 RAF1 (CRAF) knockout (CRAF KO) cancer cells; assay: Soft-agar colony formation assay in A549 RAF1 (CRAF) knockout cells with MEK or ERK inhibitor dose titration; conditions: for cell survival of RAF1 (CRAF)-depleted cells: increasing the dose; for cell survival of RAF1 (CRAF) ablated RASK (KRAS) mutant cells: low-dose treatment
Description: (§1) FIG. 11F is a set of photomicrographs showing the results of a soft-agar colony formation assay in A549 parental and RAF1 (CRAF) knockout (CRAF KO) cancer cells upon treatment with DMSO or a MEK inhibitor (GDC-0973) at the indicated dose titrations. The colonies were labeled with MTT reagent and imaged using a GelCount imager.
as §1, with “11G” for “11F”, “an ERK” for “a MEK”, “(GDC-0994)” for “(GDC-0973)”
Within the MAPK pathway, expression of BRAF^D631A mutation upon BRAF^wild-type loss induces cellular toxicity which impedes tumor development of RASK (KRAS) mutant lung tumors (Nieto et al., Nature, 548: 239-243, 2017; Yao et al., Nature, 548: 234-238, 2017). Importantly, pharmacological inhibition of ERK rescued tumor growth in this context (Nieto et al., Nature, 548: 239-243, 2017; Yao et al., Nature, 548: 234-238, 2017). […] Thus, oncogenic cellular stress induced by ARAF catalytic activity could be inhibited by low-dose MAPK inhibition, thereby promoting survival of RASK (KRAS) mutant cells.

[5] = system: A549 cancer cells depleted of RAF1 (CRAF); assay: Soft-agar colony formation assay in A549 cells treated with shCRAF and co-treated with cell death inhibitors; conditions: single agent; ZVAD-FMK 20 μM, NEC1 30 μM, Bafilomycin 50 nM
Method: FIG. 12G is a set of photomicrographs showing the results of a soft-agar colony formation assay in A549 cancer cells upon treatment with shCRAF and co-treatment with the indicated inhibitors. […] Cells were co-treated with DMSO or inhibitors for cellular apoptosis (ZVAD-FMK, 20 μM), necroptosis (NEC1, 30 μM) or a combination of both (ZVAD-FMK, 10 μM; NEC1, 10 μM) and an autophagy inhibitor (Bafilomycin, 50 nM).
As ARAF catalytic function inhibits cell growth upon RAF1 (CRAF) loss, mechanisms by which ARAF limits growth of RASK (KRAS) mutant cells were investigated. Given that MAPK inhibition is associated with induction of cellular apoptosis (Yen et al., Cancer Cell, 34: 611-625, 2018), it was hypothesized that RAF1 (CRAF) ablation induces cell death, similar to MAPK inhibition in RASK (KRAS) mutants. […] Additionally, RAF1 (CRAF) ablation in a […] isogenic RASK (KRAS) mutant cell line (HCT116 p21^−/−) rescued cell growth inhibition mediated upon RAF1 (CRAF) loss (FIG. 12A). […] A chemical inhibitor approach was adopted to test whether cell growth inhibition upon RAF1 (CRAF) loss could be rescued by the treatment with apoptosis or autophagic inhibitors. […] Finally, a Gene Set Enrichment Analysis (GSEA) of targets involved in the apoptosis pathway was performed, but no significant enrichment of any apoptosis target gene set was observed upon acute depletion of ARAF, BRAF or RAF1 (CRAF) (FIG. 12I). […] Thus, RAF1 (CRAF) depletion promotes p21-mediated cell cycle arrest in RASK (KRAS) mutant cancer cells. Further, co-depletion of RAF1 (CRAF) and ARAF in RASK (KRAS) mutant cells abrogated the expression levels of p21 (FIG. 4E).

| Compound | effect on expression of ERK downstream substrates (MAPK target gene set) [2] | cell survival of RAF1 (CRAF)-depleted cells [4] | cell survival of RAF1 (CRAF) ablated RASK (KRAS) mutant cells [4] | rescue of cell growth in RAF1 (CRAF)-depleted RASK (KRAS) mutant cells [5] | further results |
| --- | --- | --- | --- | --- | --- |
| Cc1ccc(NC(=O)c2cccc(C(C)(C)C#N)c2)cc1Nc1ccc2ncn(C)c(=O)c2c1 [AZ-628] | – | – | – | – | sensitivity of colony growth to RAF dimer inhibition ([1]; ARAF ablation in RASK (KRAS) mutant cells): sensitized cells to RAF dimer inhibition; sensitivity of colony growth to RAF dimer inhibition ([1]; BRAF ablation in RASK (KRAS) mutant cells): less sensitive to RAF dimer inhibition |
| O=C(c1ccc(F)c(F)c1Nc1ccc(I)cc1F)N1CC(O)([C@@H]2CCCCN2)C1 [GDC-0973] | induced suppression of ERK downstream substrates | limited cell survival | promoted cell survival | – | RAF heterodimers co-immunoprecipitated with FLAG-CRAF (RAF1:BRAF heterodimers): enriched for RAF1:BRAF heterodimers; preferential RAF dimer association of CRAF wild-type (PIKES) [3]: promoted increased CRAF: BRAF dimers in comparison to CRAF: ARAF dimers; effect on MAPK signaling (pMEK, pERK Western blot) (MAPK signaling): suppresses MAPK signaling |
| Cn1nccc1Nc1nccc(-c2ccn([C@H](CO)c3ccc(Cl)c(F)c3)c(=O)c2)n1 [GDC-0994] | induced suppression of ERK downstream substrates | limited cell survival | promoted cell survival | – | – |
| CN1C(=O)C(Cc2c[nH]c3ccccc23)NC1=S (centres unmarked) [NEC1] | – | – | – | did not rescue cell growth | – |
| COC(=O)C[C@H](NC(=O)[C@H](C)NC(=O)[C@@H](NC(=O)OCc1ccccc1)C(C)C)C(=O)CF [Z-VAD-FMK] (Cbz-Val-Ala-Asp(OMe)-CH2F) | – | – | – | did not rescue cell growth | – |
| CO/C1=C\C(C)=C\[C@@H](C)[C@@H](O)[C@@H](C)C/C(C)=C/C=C/[C@H](OC)[C@@H]([C@@H](C)[C@@H](O)[C@H](C)[C@@]2(O)C[C@@H](O)[C@H](C)[C@@H](C(C)C)O2)OC1=O [bafilomycin] | – | – | – | did not rescue cell growth | – |
